Measured values reported in the Deep4Chem optical property database.
Each block holds one compound with its values, some of them ahead of it.

Experiment: solvent given as SMILES

SMILES: CC(C)(C)c1ccc(Oc2cc3c4c(cc(Oc5ccc(C(C)(C)C)cc5)c5c6c(Oc7ccc(C(C)(C)C)cc7)cc7c8c(cc(Oc9ccc(C(C)(C)C)cc9)c(c2c45)c86)C(=O)OC7=O)C(=O)OC3=O)cc1
fluorescence lifetime (in ClC(Cl)Cl): 6.4 ns

SMILES: c1ccc(-c2nc(-c3ccccc3)nc(-c3ccc(-n4c5ccccc5c5ccc6c7ccccc7n(-c7ccccc7)c6c54)cc3)n2)cc1
fluorescence lifetime (in O=P(c1ccccc1)(c1ccccc1)c1ccc2oc3ccc(P(=O)(c4ccccc4)c4ccccc4)cc3c2c1): 11.9 ns

SMILES: COC(=O)c1cc2c(cc3ccc4cccc5ccc2c3c45)[nH]1
fluorescence lifetime (in C1CCOC1): 2.29 ns

SMILES: Cc1cccc(C)c1/C=C/c1nc(N2CCOCC2)c2c([n+]1[O-])CCCC2
fluorescence lifetime (in ClCCl): 9.1 ns

SMILES: O=C1c2ccc(N(c3ccccc3)c3ccccc3)cc2C(=O)c2ccc(N(c3ccccc3)c3ccccc3)cc21
fluorescence lifetime (in Cc1ccccc1): 5.3 ns
fluorescence lifetime (in c1ccc2c(c1)c1ccccc1n2-c1ccc(-c2ccc(-n3c4ccccc4c4ccccc43)cc2)cc1): 4.9 ns

SMILES: [C-]#[N+]c1ccc(-c2ccc(NC)cc2)cc1
fluorescence lifetime (in CC#N): 1.8 ns
fluorescence lifetime (in CCOC(C)=O): 1.4 ns

SMILES: c1ccc(C(=C(c2ccccc2)c2ccc(-c3ccc(-c4nc5c(-c6ccc(-c7ccc(C(=C(c8ccccc8)c8ccccc8)c8ccccc8)cc7)cc6)sc(-c6ccc(-c7ccc(C(=C(c8ccccc8)c8ccccc8)c8ccccc8)cc7)cc6)c5nc4-c4ccc(-c5ccc(C(=C(c6ccccc6)c6ccccc6)c6ccccc6)cc5)cc4)cc3)cc2)c2ccccc2)cc1
fluorescence lifetime (in ClCCl): 6.7 ns

SMILES: CC(=O)OC[C@@H]1O[C@H](N2C=CC3=Nc4nc(C)[n+](C)cc4CN3C2=O)[C@@H](O)[C@H]1O
fluorescence lifetime (in CC#N): 3.92 ns
fluorescence lifetime (in O): 1.04 ns

SMILES: c1ccc(-c2nc(-c3ccccc3)nc(-c3ccc(-n4c5ccccc5c5cc6c(cc54)C(c4ccccc4)(c4ccccc4)c4ccccc4-6)cc3)n2)cc1
fluorescence lifetime (in O=P(c1ccccc1)(c1ccccc1)c1ccccc1Oc1ccccc1P(=O)(c1ccccc1)c1ccccc1): 10.3 ns

SMILES: COC(=O)C(NC(=O)OC(C)(C)C)c1ccc2oc(-c3cc(OC)c(OC)cc3OC)nc2c1 (stereo not given)
fluorescence lifetime (in CC1CCCCC1): 1.27 ns
fluorescence lifetime (in CC#N): 1.78 ns
fluorescence lifetime (in CO): 2.03 ns

SMILES: CCCCCCCCOC(=O)c1ccc(-c2cc3ccc4cc(-c5ccc(C(=O)OCCCCCCCC)cc5)cc5ccc(c2)c3c45)cc1
fluorescence lifetime (in Cc1ccccc1): 49 ns

SMILES: CN(C)c1ccc(C#Cc2cc3ccc4cc(C#Cc5ccc(N(C)C)cc5)cc5ccc(c2)c3c45)cc1
fluorescence lifetime (in Cc1ccccc1): 60 ns

SMILES: c1ccc(-c2ccc(-c3ccc(N(c4ccccc4)c4ccccc4)cc3)c3nsnc23)cc1
fluorescence lifetime (in C1CCOC1): 7.95 ns
fluorescence lifetime (in CC(C)=O): 3.58 ns
fluorescence lifetime (in CCCCCC): 6.77 ns
fluorescence lifetime (in CCOCC): 7.46 ns

SMILES: COC(=O)c1ccc(C2=C3C=CC(C)=[N+]3[B-](F)(F)n3c(C)ccc32)cc1
fluorescence lifetime (in C1CCCCC1): 0.54 ns
fluorescence lifetime (in Cc1ccccc1): 0.82 ns

SMILES: c1ccc(-c2cc(-c3ccc4ccc5c(-c6ccnc(-c7ccccn7)c6)ccc6ccc3c4c65)ccn2)nc1
fluorescence lifetime (in C1CCOC1): 2 ns
fluorescence lifetime (in CC#N): 2.2 ns
fluorescence lifetime (in CCC#N): 2.2 ns
fluorescence lifetime (in CCCC#N): 2.1 ns
fluorescence lifetime (in CCCCCC): 2.6 ns
fluorescence lifetime (in CCCO): 2.1 ns
fluorescence lifetime (in CCO): 2.1 ns
fluorescence lifetime (in CO): 1.7 ns
fluorescence lifetime (in Cc1ccccc1): 1.8 ns

SMILES: CC(C)(C)c1ccc(C(C)(C)C)c(N2C(=O)c3cccc4c(-c5ccc(-c6ccc(N(c7ccccc7)c7ccccc7)cc6)s5)ccc(c34)C2=O)c1
fluorescence lifetime (in Cc1ccccc1): 2.6 ns

SMILES: Cc1ccc(-c2cc(-c3ccc(N(C)C)cc3)c3c(N)nc(N4CCCC4)c(C#N)c3n2)cc1
fluorescence lifetime (in CC#N): 7.3 ns
fluorescence lifetime (in CC(C)=O): 10.3 ns
fluorescence lifetime (in CC(C)O): 11.2 ns
fluorescence lifetime (in CO): 3.6 ns
fluorescence lifetime (in ClC(Cl)Cl): 11.5 ns
fluorescence lifetime (in ClCCl): 12.6 ns
fluorescence lifetime (in c1ccccc1): 10.7 ns

SMILES: C[Si](C)(C)c1cccc2c(C#N)cccc12
fluorescence lifetime (in C1CCCCC1): 8 ns

SMILES: O=C1CCCc2c1[nH]c1cc3c(cc21)OCO3
fluorescence lifetime (in C1CCOC1): 0.442 ns
fluorescence lifetime (in C1COCCO1): 0.481 ns
fluorescence lifetime (in CC#N): 0.978 ns
fluorescence lifetime (in CCCCCCCCCCCCO): 1.36 ns
fluorescence lifetime (in CCCCCCCCCCO): 1.28 ns
fluorescence lifetime (in CCCCCCCCO): 1.25 ns
fluorescence lifetime (in CCCCCCO): 1.22 ns
fluorescence lifetime (in CCCCO): 1.12 ns
fluorescence lifetime (in CCO): 1.36 ns
fluorescence lifetime (in CCOC(C)=O): 0.476 ns
fluorescence lifetime (in CN(C)C=O): 0.838 ns
fluorescence lifetime (in CO): 1.78 ns
fluorescence lifetime (in CS(C)=O): 1.43 ns
fluorescence lifetime (in O): 2.29 ns
fluorescence lifetime (in c1ccccc1): 0.466 ns

SMILES: c1ccc(N2c3ccc4ccccc4c3-c3c4ccccc4cn[n+]3[B-]2(c2ccccc2)c2ccccc2)cc1
fluorescence lifetime (in Cc1ccccc1): 2.56 ns

SMILES: O=c1[nH]c(=O)n([C@@H]2O[C@H](CO)[C@@H](O)[C@H]2O)cc1-c1cc2ccccc2s1
fluorescence lifetime (in C1COCCO1): 0.45 ns
fluorescence lifetime (in CC#N): 0.49 ns
fluorescence lifetime (in CO): 0.6 ns
fluorescence lifetime (in O): 1.04 ns

SMILES: Cc1nnc(-c2cc(-n3c4ccccc4c4ccccc43)c(-n3c4ccccc4c4ccccc43)cc2-c2nnc(C)o2)o1
fluorescence lifetime (in Cc1ccccc1): 14.5 ns

SMILES: CC(=O)[B-]1(C(C)=O)OC(c2ccccc2)=CC(c2ccccc2)=[O+]1
fluorescence lifetime (in CC#N): 1.5 ns
fluorescence lifetime (in ClC(Cl)(Cl)Cl): 2.1 ns

SMILES: COc1ccccc1
fluorescence lifetime (in C1CCCCC1): 11.1 ns

SMILES: N#Cc1c(-n2c3ccc(Br)cc3c3cc(Br)ccc32)c(C#N)c(-n2c3ccc(Br)cc3c3cc(Br)ccc32)c(-n2c3ccc(Br)cc3c3cc(Br)ccc32)c1-n1c2ccc(Br)cc2c2cc(Br)ccc21
fluorescence lifetime (in Cc1ccccc1): 0.4 ns

SMILES: CCOC(=O)c1ccc2c(c1)[nH]c1c3ccc(C(=O)OCC)cc3[se]c21
fluorescence lifetime (in CCCO): 0.15 ns

SMILES: Cc1ccc(-c2cc(-c3ccccc3)c(C#N)c(=S)[nH]2)cc1
fluorescence lifetime (in CC#N): 4.92 ns
fluorescence lifetime (in CCO): 4.79 ns
fluorescence lifetime (in ClC(Cl)(Cl)Cl): 1.22 ns

SMILES: CCCCCCCCC1(CCCCCCCC)c2cc(-c3ccc([Si](C)(C)C)cc3)ccc2-c2ccc(-c3ccc([Si](C)(C)C)cc3)cc21
fluorescence lifetime (in CN(C)C=O): 1.01 ns

SMILES: COCCN1C(=O)/C(=C/c2cccc(N(C)C)c2)N=C1C
fluorescence lifetime (in C1CCOC1): 14.7 ns
fluorescence lifetime (in CC#N): 7.9 ns
fluorescence lifetime (in CCCCCC): 21.2 ns

SMILES: COc1ccc(N2c3cc(OC)ccc3N=c3cc4c(cc32)=Nc2cc(C(C)(C)C)cc(C(C)(C)C)c2O4)cc1
fluorescence lifetime (in CCCCCC): 1.14 ns

SMILES: CCCCCCOc1ccc(N(c2ccc(OCCCCCC)cc2)c2ccc(-c3sc(-c4ccc(N(c5ccc(OCCCCCC)cc5)c5ccc(OCCCCCC)cc5)cc4)c4nc(CC)c(CC)nc34)cc2)cc1
fluorescence lifetime (in CN(C)C=O): 0.92 ns
fluorescence lifetime (in ClC(Cl)Cl): 1.09 ns

SMILES: COc1cc2c(cc1/C=C/C1=CC(=C(C#N)C#N)CC(C)(C)C1)c1ccccc1n2C
fluorescence lifetime (in C1CCOC1): 6.48 ns
fluorescence lifetime (in CC#N): 10.4 ns
fluorescence lifetime (in CCO): 7.78 ns
fluorescence lifetime (in CCOC(C)=O): 6.38 ns
fluorescence lifetime (in CN(C)C=O): 9.14 ns
fluorescence lifetime (in CS(C)=O): 8.27 ns
fluorescence lifetime (in Cc1ccccc1): 8.3 ns
fluorescence lifetime (in ClC(Cl)Cl): 9.43 ns
fluorescence lifetime (in ClCCl): 6.7 ns

SMILES: N#Cc1ccc2[nH]ccc2c1
fluorescence lifetime (in C1CCOC1): 4.4 ns
fluorescence lifetime (in C1COCCO1): 4.2 ns
fluorescence lifetime (in CC#N): 4.4 ns
fluorescence lifetime (in CC(C)O): 4.6 ns
fluorescence lifetime (in CCO): 4.3 ns
fluorescence lifetime (in CO): 2.9 ns
fluorescence lifetime (in CS(C)=O): 7.1 ns
fluorescence lifetime (in NC=O): 5.4 ns
fluorescence lifetime (in O): 0.3 ns
fluorescence lifetime (in OCC(F)(F)F): 0.1 ns
fluorescence lifetime (in [2H]O[2H]): 0.4 ns

SMILES: COc1ccc2nc(N)sc2c1
fluorescence lifetime (in CC#N): 4.4 ns
fluorescence lifetime (in ClCCl): 3.86 ns

SMILES: CCOc1ccc2c(-c3nc(-c4ccccc4F)no3)cc(=O)oc2c1
fluorescence lifetime (in CCO): 6.6 ns
fluorescence lifetime (in ClC(Cl)Cl): 5.1 ns

Now from value to compound:

fluorescence lifetime (in ClC(Cl)Cl): 0.38 ns
SMILES: CC1=CC(C)=[N+]2C1=C(c1ccc(I)cc1)c1c(C)cc(C)n1[B-]2(Oc1ccccc1)Oc1ccccc1

fluorescence lifetime (in ClCCl): 3.51 ns
SMILES: CCN(CC)c1ccc2c(c1)oc(=O)c1c(C)nc3c(c(-c4ccccc4)nn3-c3ccccc3)c12

fluorescence lifetime (in C1CCCCC1): 0.2 ns
fluorescence lifetime (in CO): 0.16 ns
SMILES: Clc1ccc(/C=C/c2nc3ccccc3o2)cc1

fluorescence lifetime (in CC#N): 6.92 ns
fluorescence lifetime (in CCCCCC): 3.35 ns
fluorescence lifetime (in CO): 4.04 ns
fluorescence lifetime (in ClC(Cl)Cl): 4.22 ns
SMILES: c1ccc2cc3cc(-c4cc(-c5nccs5)nc(-c5nccs5)c4)ccc3cc2c1

fluorescence lifetime (in ClCCl): 1.34 ns
SMILES: Cc1ccc(-c2cc(/C=C/c3ccc(N(c4ccccc4)c4ccccc4)cc3)c(-c3ccc(C)cc3)cc2/C=C/c2ccc(N(c3ccccc3)c3ccccc3)cc2)cc1

fluorescence lifetime (in CC#N): 2.25 ns
SMILES: CCN(CC)c1ccc2cc(/C=C/c3ccccc3)c(=O)oc2c1

fluorescence lifetime (in ClC(Cl)Cl): 1.23 ns
SMILES: Cc1ccc(C#Cc2ccc(C#Cc3ccc(C#Cc4ccccc4C#N)cc3C#N)cc2C#N)cc1

fluorescence lifetime (in CO): 0.56 ns
fluorescence lifetime (in ClC(Cl)Cl): 4.05 ns
SMILES: CCN1C(=CC2=C([O-])C(=Cc3sc4ccccc4[n+]3CC)C2=O)Sc2ccccc21

fluorescence lifetime (in C1CCCCC1): 2.1 ns
SMILES: CN(C)c1ccc2nc(-c3ccccc3)sc2c1

fluorescence lifetime (in ClC(Cl)Cl): 1.53 ns
SMILES: COc1ccc(C2=c3sc(-c4ccc(OC)cc4)c(-c4ccc(OC)cc4)c3=[N+]3C2=Nc2c(-c4ccc(OC)cc4)c4sc(-c5ccc(OC)cc5)c(-c5ccc(OC)cc5)c4n2[B-]3(F)F)cc1

fluorescence lifetime (in ClCCl): 2.98 ns
SMILES: CC(C)(C)c1ccc(-c2c3cccc4c(-c5ccccc5)cc5c(-c6ccc(C(C)(C)C)cc6)c6cccc7c(-c8ccccc8)cc2c(c76)c5c43)cc1

fluorescence lifetime (in CS(C)=O): 8.1 ns
SMILES: CCCCCn1c2ccccc2c(=O)c2ccccc21

fluorescence lifetime (in ClCCl): 1.92 ns
SMILES: N#Cc1ccc(-n2c(-c3ccc(-c4ccc(-c5nc6c7ccccc7c7ccccc7c6n5-c5ccc(C#N)c6ccccc56)cc4)cc3)nc3c4ccccc4c4ccccc4c32)c2ccccc12

fluorescence lifetime (in ClCCl): 1.51 ns
SMILES: CCCCCCn1c2ccccc2c2cc(-c3ccc(-c4cc(-c5ccccn5)nc(-c5ccccn5)c4)cc3)ccc21

fluorescence lifetime (in C1CCOC1): 8 ns
SMILES: Cc1ccc(-c2ccc(-c3ccc(C)cc3)c(/C(=C(/c3ccccc3)c3cc(-c4ccc(C)cc4)ccc3-c3ccc(C)cc3)c3ccccc3)c2)cc1

fluorescence lifetime (in ClC(Cl)Cl): 1.2 ns
SMILES: C(#Cc1ccccc1)C(C#Cc1ccccc1)=Cc1ccc(C=C(C#Cc2ccccc2)C#Cc2ccccc2)cc1

fluorescence lifetime (in ClC(Cl)Cl): 2.34 ns
SMILES: C[N+]1=c2cc3c(cc2C(C)(C)CC1)=C(c1ccccc1C(=O)O)c1cc2c(cc1O3)Oc1cc3c(cc1=C2c1ccccc1C(=O)O)C(C)(C)CC[N+]=3C

fluorescence lifetime (in CC#N): 2.1 ns
SMILES: Cc1ccc(-[c+]2c3ccccc3oc3ccccc32)cc1

fluorescence lifetime (in ClCCl): 4.16 ns
SMILES: C(#Cc1ccc(-n2c3ccccc3c3ccccc32)cc1)c1ccc(-c2nc(-c3ccc(C#Cc4ccc(-n5c6ccccc6c6ccccc65)cc4)cc3)nc(-c3ccc(C#Cc4ccc(-n5c6ccccc6c6ccccc65)cc4)cc3)n2)cc1
